According to ChEMBL document CHEMBL5247615, “Discovery of 5-(3,4-dihydroxybenzylidene)-1,3-dimethylpyrimidine- 2,4,6(1H,3H,5H)-trione as a novel and effective cardioprotective agent via dual anti-inflammatory and anti-oxidative activities” (Eur J Med Chem, 2022):
Active and inactive are the calls of the source. No cut-off for these calls is given here.

Key:
[1] = system: H9c2; test: Cardioprotective activity against hydrogen peroxide induced cell injury in rat H9c2 cells assessed as increase in cell viability at 5 uM measured after 24 hrs by MTT assay; assay type: functional
[2] = system: H9c2; test: Cardioprotective activity against hydrogen peroxide induced cell injury in rat H9c2 cells assessed as increase in cell viability at 5 to 20 uM measured after 24 hrs by MTT assay; assay type: functional, cell-based; conditions: dose 5-20 µM
[3] = system: H9c2; test: Cardioprotective activity against hydrogen peroxide induced cell injury in rat H9c2 cells at 40 uM pretreated for 24 hrs followed by treatment with hydrogen peroxide for 2 hrs by MTT assay; assay type: functional, cell-based; conditions: time 26.0 hrs
[4] = system: Rattus norvegicus; test: Antiinflammatory activity in myocardial ischemia/reperfusion induced ip dosed Sprague-Dawley rat injury model assessed as increase in CAT activity administered once a day for 2 weeks by Western blotting analysis; assay type: functional, organism-based; conditions: dose 5-20 mg/kg
[5] = system: Rattus norvegicus; test: Antiinflammatory activity in myocardial ischemia/reperfusion induced Sprague-Dawley rat injury model assessed as decrease in IL-1beta protein expression in heart at 10 mg/kg, ip administered once a day for 2 weeks by Western blotting analysis; assay type: functional, organism-based
[6] = system: Rattus norvegicus; test: Cardioprotective activity in myocardial ischemia/reperfusion induced ip dosed Sprague-Dawley rat injury model assessed as increase in heart LDH level administered once a day for 2 weeks; assay type: functional, organism-based; conditions: dose 5-20 mg/kg
[7] = system: H9c2; test: Inhibition of autophagy in hydrogen peroxide induced rat H9c2 cells assessed as down regulation of […] mRNA level at 5 to 20 uM pretreated with compound for 24 hrs followed by treatment with hydrogen peroxide for 2 hrs; assay type: functional, cell-based; conditions: dose 5-20 µM, time 26.0 hrs
[8] = system: Rattus norvegicus; test: Cardioprotective activity in myocardial ischemia/reperfusion induced Sprague-Dawley rat injury model assessed as reduction in heart cardiac infarct size at 20 mg/kg, ip administered once a day for 2 weeks measured by Evans blue staining analysis (reference value: 46.8%); assay type: functional; parameters: scale not given: the % may be the effect or the level left
[9] = system: Rattus norvegicus; test: Cardioprotective activity in myocardial ischemia/reperfusion induced Sprague-Dawley rat injury model assessed as decrease in ST-segment elevation at 5 to 20 mg/kg, ip administered once a day for 2 weeks measured by electrocardiogram; assay type: functional, organism-based; conditions: dose 5-20 mg/kg
[10] = system: H9c2; test: Antiinflammatory activity in hydrogen peroxide induced rat H9c2 cells assessed as reversal of increase in IL-1beta mRNA expression pretreated with compound for 24 hrs followed by treatment with hydrogen peroxide for 2 hrs; assay type: functional, cell-based; conditions: dose 5-20 µM, time 26.0 hrs
[11] = system: H9c2; test: Antioxidant activity in hydrogen peroxide induced rat H9c2 cells assessed as increase in HO-1 expression pretreated with compound for 24 hrs followed by treatment with hydrogen peroxide for 2 hrs; assay type: functional, cell-based; conditions: dose 5-20 µM, time 26.0 hrs
[12] = system: H9c2; test: Cardioprotective activity against hydrogen peroxide induced cell injury in rat H9c2 cells assessed as reduction in loss of cell membrane integrity by measuring LDH level at 5 uM pretreated with compound for 24 hrs followed by treatment with hydrogen peroxide for 2 hrs relative to control; assay type: functional; parameters: scale not given: the % may be the effect or the level left
[13] = system: H9c2; test: Cardioprotective activity against hydrogen peroxide induced cell injury in rat H9c2 cells assessed as reduction in loss of cell membrane integrity by measuring LDH level at 20 uM pretreated with compound for 24 hrs followed by treatment with hydrogen peroxide for 2 hrs relative to control; assay type: functional; parameters: scale not given: the % may be the effect or the level left
[14] = system: H9c2; test: Antiinflammatory activity in hydrogen peroxide induced rat H9c2 cells assessed as reversal of increase in NLRP-3 mRNA expression pretreated with compound for 24 hrs followed by treatment with hydrogen peroxide for 2 hrs; assay type: functional, cell-based; conditions: dose 5-20 µM, time 26.0 hrs
[15] = system: H9c2; test: Cardioprotective activity against hydrogen peroxide induced cell injury in rat H9c2 cells assessed as reduction in loss of cell membrane integrity by measuring LDH level at 10 uM pretreated with compound for 24 hrs followed by treatment with hydrogen peroxide for 2 hrs relative to control; assay type: functional; parameters: scale not given: the % may be the effect or the level left
[16] = system: Rattus norvegicus; test: Antiinflammatory activity in myocardial ischemia/reperfusion induced ip dosed Sprague-Dawley rat injury model assessed as decrease in MDA level administered once a day for 2 weeks by Western blotting analysis; assay type: functional, organism-based; conditions: dose 5-20 mg/kg
[17] = system: Rattus norvegicus; test: Antioxidant activity in myocardial ischemia/reperfusion induced Sprague-Dawley rat injury model assessed as […] Nrf2 expression administered at 10 mg/kg, ip once a day for 2 weeks by Western blotting analysis; assay type: functional, organism-based
[18] = system: Rattus norvegicus; test: Cardioprotective activity in myocardial ischemia/reperfusion induced ip dosed Sprague-Dawley rat injury model assessed as increase in heart AST level administered once a day for 2 weeks; assay type: functional, organism-based; conditions: dose 5-20 mg/kg
[19] = system: H9c2; test: Inhibition of autophagy in hydrogen peroxide induced rat H9c2 cells assessed as down regulation of p62 mRNA level at 5 to 20 uM pretreated with compound for 24 hrs followed by treatment with hydrogen peroxide for 2 hrs; assay type: functional, cell-based; conditions: dose 5-20 µM, time 26.0 hrs
[20] = system: Rattus norvegicus; test: Antiinflammatory activity in myocardial ischemia/reperfusion induced ip dosed Sprague-Dawley rat injury model assessed as decrease in NLRP3 protein expression in heart administered once a day for 2 weeks by Western blotting analysis; assay type: functional, organism-based; conditions: dose 5-20 mg/kg
[21] = system: H9c2; test: Cardioprotective activity against hydrogen peroxide induced cell injury in rat H9c2 cells assessed as reversal of abnormal cell morphology pretreated with compound for 24 hrs followed by treatment with hydrogen peroxide for 2 hrs; assay type: functional, cell-based; conditions: dose 5-20 µM, time 26.0 hrs
[22] = system: Rattus norvegicus; test: Antiinflammatory activity in myocardial ischemia/reperfusion induced ip dosed Sprague-Dawley rat injury model assessed as decrease in IL-1beta protein expression in heart administered once a day for 2 weeks by Western blotting analysis; assay type: functional, organism-based; conditions: dose 5-20 mg/kg
[23] = system: H9c2; test: Antiinflammatory activity in hydrogen peroxide induced rat H9c2 cells assessed as reversal of increase in IL-18 mRNA expression pretreated with compound for 24 hrs followed by treatment with hydrogen peroxide for 2 hrs; assay type: functional, cell-based; conditions: dose 5-20 µM, time 26.0 hrs
[24] = system: H9c2; test: Cytotoxicity against rat H9c2 cells assessed as reduction in cell viability upto 100 uM measured after 24 hrs by MTT assay relative to control; assay type: toxicity, cell-based; conditions: h9c2, 24 h
[25] = system: H9c2; test: Antioxidant activity in hydrogen peroxide induced rat H9c2 cells assessed as increase in Nrf2 expression pretreated with compound for 24 hrs followed by treatment with hydrogen peroxide for 2 hrs; assay type: functional, cell-based; conditions: dose 5-20 µM, time 26.0 hrs
[26] = system: H9c2; test: Antioxidant activity in hydrogen peroxide induced rat H9c2 cells assessed as increase in SOD expression pretreated with compound for 24 hrs followed by treatment with hydrogen peroxide for 2 hrs; assay type: functional, cell-based; conditions: dose 5-20 µM, time 26.0 hrs
[27] = system: H9c2; test: Cardioprotective activity against hydrogen peroxide induced cell injury in rat H9c2 cells at 5 to 20 uM pretreated with compound for 24 hrs followed by hydrogen peroxide addition for 2 hrs by MTT assay; assay type: functional, cell-based; conditions: dose 5-20 µM, time 26.0 hrs
[28] = system: Rattus norvegicus; test: Cardioprotective activity in myocardial ischemia/reperfusion induced Sprague-Dawley rat injury model assessed as reduction in cardiac infarct size at 10 mg/kg, ip administered once a day for 2 weeks measured by Evans blue staining analysis (reference value: 46.8%); assay type: functional, Heart; parameters: scale not given: the % may be the effect or the level left

CN1C(=O)C(=Cc2ccccc2O)C(=O)N(C)C1=O
Activity [1]: 40.3% | Activity [2]: Active

O=c1cc(-c2ccc(O)c(O)c2)oc2cc(O)cc(O)c12
Activity [3]: Active

CN1C(=O)C(=Cc2ccc(O)c(O)c2)C(=O)N(C)C1=O
Activity [4]: Active | Activity [1]: 77.5% | Activity [5]: Active | Activity [6]: Dose-Dependent Effect | inhibition [7]: Active | Activity [8]: 22.3% | Activity [9]: Active | Activity [10]: Dose-Dependent Effect | Activity [11]: Dose-Dependent Effect | Activity [2]: Active | Activity [12]: 15.3% | Activity [13]: 60.7% | Activity [14]: Dose-Dependent Effect | Activity [15]: 35.6% | Activity [16]: Active | Activity [17]: inactive | Activity [18]: Dose-Dependent Effect | inhibition [19]: Active | Activity [20]: Active | Activity [21]: Dose-Dependent Effect | Activity [22]: Active | Activity [23]: Dose-Dependent Effect | Activity [24]: Non-Toxic | Activity [25]: Dose-Dependent Effect | Activity [26]: Dose-Dependent Effect | Activity [27]: Active | Activity [28]: 32.3%

CN1C(=O)C(=Cc2cccc(O)c2O)C(=O)N(C)C1=O
Activity [27]: Active

COCCc1ccc(OCC(O)CNC(C)C)cc1 (stereo not drawn)
Activity [3]: Active

Cc1ccc(O)c(C=C2C(=O)N(C)C(=O)N(C)C2=O)c1
Activity [27]: Active
